Test results: patent US12686691B2, “Crystalline form of SHP2 inhibitor, and composition thereof, preparation method therefor, and use thereof” (ETERN BIOPHARMA (SHANGHAI) CO., LTD., priority 2020, dated 2026)
Blank lines part the entries; values can stand above or below the compound they belong to.

Key:
Assay type in all cases: physicochemical
[1] = Variable temperature XRPD (heating under nitrogen protection, XRPD after cooling)
Method: (§1) Instruments and Experimental Conditions Used in the Example • 1. Differential Scanning Calorimeter, DSC • Instrument model: Mettler Toledo DSC3+Stare e System • Purge gas: nitrogen (50 mL/min) • Ramping rate: 10.0° C./min • Temperature range: 20-250° C. • 2. X-Ray Powder Diffraction, XRPD • Instrument model: Rigaku UltimalV X-ray powder diffractometer • Ray: monochromatic Cu—Kα ray (λ=1.5418 Å) • Scanning mode: θ/2θ, scanning range: 3-45° • Voltage: 40 kV, current: 40 mA • 3. Thermogravimetric Analysis, TGA • Instrument model: Mettler Toledo TGA2STAR eSystem • Purge gas: nitrogen • Ramping rate: 10.0° C./min • Temperature range: 20-250° C. • 4. Dynamic Vapour Sorption, DVS • Instrument model: TAQ5000VSA • Temperature: 25° C. • Solvent: water • Humidity change: 0-95-0-95-0% RH, step by 10%, less than 0.01% of mass change within […] as the judging standard • 4. HPLC Method • Instrument model: Agilent 1100 with VWD detector • Columns: poroshell 120 EC C18, 3.0 mm/50 mm/2.7 μm • Mobile phase: A: 0.03% NH4OH (25%~28%) in water • B: 0.03% NH4OH (25%~28%) in acetonitrile
The crystalline form A of Compound 1 was placed under nitrogen protection and heated to different temperatures (30° C., 92° C., 118° C., 132° C. and 175° C., respectively), then subjected to XRPD test after it was cooled.
The crystalline form B of Compound 1 was placed under nitrogen protection and heated to different temperatures (130° C. and 180° C., respectively), then subjected to XRPD test after it was cooled to room temperature.
The crystalline form C of Compound 1 was placed under nitrogen protection and heated to different temperatures (130° C. and 160° C., respectively), then subjected to XRPD test after it was cooled to room temperature.
The crystalline form D of Compound 1 was placed under nitrogen protection and heated to different temperatures (100° C. and 160° C., respectively), then subjected to XRPD test after it was cooled to room temperature.
The crystalline form E of Compound 1 was placed under nitrogen protection and heated to different temperatures (96° C. and 180° C., respectively), then subjected to XRPD test after it was cooled to room temperature.

DVS hygroscopicity test = experiment: DVS hygroscopicity test
Method: as §1
Hygroscopicity of the crystalline form A of Compound 1 was evaluated by DVS test.

[2] = Stability investigation of the crystalline form A (placement under temperature/humidity, XRPD and HPLC); conditions: for Crystalline form change: XRPD; for HPLC purity initial: before placement
Method: as §1
• Mobile Phase Flow Rate: 1.0 mL/min • Run time: 10.0 min • Injection volume: 2 μL • Detecting wavelength: UV, 254 nm • Column temperature: 25° C. • Injector temperature: RT • Diluent: acetonitrile:water=1:1 (v:v)
The crystalline form A of Compound 1 was placed under 60° C./closed condition for 24 hours, under 25° C./60% RH and 40° C./75% RH in an open state for one week, respectively. The physical and chemical stability of the sample was detected by XRPD and HPLC.

[3] = heated to 180° C. under nitrogen
[4] = heated to 160° C. under nitrogen
[5] = heated to 130° C. under nitrogen
[6] = 40° C./75% RH, 1 week, open state

crystalline form after heating and cooling to room temperature ([1]; heated to 100° C. under nitrogen): crystallinity was significantly reduced
Compound: Nc1nccc(Sc2cnc(N3CCC4(CC3)Cc3ncccc3[C@H]4N)n3ccnc23)c1Cl [crystalline form D, (S)-1′-(8-((2-amino-3-chloropyridin-4-yl)thio)imidazo[1,2-c]pyrimidin-5-yl)-5,7-dihydrospiro[cyclopentadieno[b]pyridine-6,4′-piperidine]-5-amine]
crystalline form after heating and cooling to room temperature [1, 4]: diffraction signal of the crystalline form A is observed

crystalline form after heating and cooling to room temperature [1, 5]: converted into an amorphous form
crystalline form after heating and cooling to room temperature [1, 4]: converted to the crystalline form A
Compound: Nc1nccc(Sc2cnc(N3CCC4(CC3)Cc3ncccc3[C@H]4N)n3ccnc23)c1Cl [crystalline form C, (S)-1′-(8-((2-amino-3-chloropyridin-4-yl)thio)imidazo[1,2-c]pyrimidin-5-yl)-5,7-dihydrospiro[cyclopentadieno[b]pyridine-6,4′-piperidine]-5-amine]

More lines, now with the values behind:

Compound: Nc1nccc(Sc2cnc(N3CCC4(CC3)Cc3ncccc3[C@H]4N)n3ccnc23)c1Cl [crystalline form E, (S)-1′-(8-((2-amino-3-chloropyridin-4-yl)thio)imidazo[1,2-c]pyrimidin-5-yl)-5,7-dihydrospiro[cyclopentadieno[b]pyridine-6,4′-piperidine]-5-amine]
crystalline form after heating and cooling to room temperature ([1]; heated to 96° C. under nitrogen): a small amount of diffraction signal of the crystalline form A is observed
crystalline form after heating and cooling to room temperature [1, 3]: completely converted to the crystalline form A

Compound: Nc1nccc(Sc2cnc(N3CCC4(CC3)Cc3ncccc3[C@H]4N)n3ccnc23)c1Cl [crystalline form B, (S)-1′-(8-((2-amino-3-chloropyridin-4-yl)thio)imidazo[1,2-c]pyrimidin-5-yl)-5,7-dihydrospiro[cyclopentadieno[b]pyridine-6,4′-piperidine]-5-amine]
crystalline form after heating and cooling to room temperature [1, 5]: converted into an amorphous form
crystalline form after heating and cooling to room temperature [1, 3]: converted to the crystalline form A

Compound: Nc1nccc(Sc2cnc(N3CCC4(CC3)Cc3ncccc3[C@H]4N)n3ccnc23)c1Cl [crystalline form A, (S)-1′-(8-((2-amino-3-chloropyridin-4-yl)thio)imidazo[1,2-c]pyrimidin-5-yl)-5,7-dihydrospiro[cyclopentadieno[b]pyridine-6,4′-piperidine]-5-amine]
weight gain of moisture absorption (DVS hygroscopicity test; DVS, 80.0% RH, 25° C.): 1.88%
hygroscopicity (DVS hygroscopicity test; DVS, judged from weight gain at 80.0% RH): slight hygroscopicity
crystalline form before and after DVS test (XRPD) (DVS hygroscopicity test; XRPD before and after DVS): consistent
HPLC purity After placement ([2]; 25° C./60% RH, 1 week): 97.99 area %
HPLC purity Relative to initial ([2]; 25° C./60% RH, 1 week): 99.6%
Crystalline form change ([2]; 25° C./60% RH, 1 week): no crystalline form change
Crystalline form change ([2]; 25° C./60% RH, 1 week, listed as Crystalline form A): no
HPLC purity After placement [2, 6]: 97.89 area %
HPLC purity Relative to initial [2, 6]: 99.5%
Crystalline form change [2, 6]: only part of crystalline form A was converted to hydrate crystalline form B
Crystalline form change ([2]; 40° C./75% RH, 1 week, open state, listed as Crystalline form A): yes
HPLC purity After placement ([2]; 60° C./closed, 24 hours): 98.55 area %
HPLC purity Relative to initial ([2]; 60° C./closed, 24 hours): 99.9%
Crystalline form change ([2]; 60° C./closed, 24 hours): no crystalline form change
Crystalline form change ([2]; 60° C./closed, 24 hours, listed as Crystalline form A): no
chemical stability (HPLC) ([2]; all three stability test conditions): good chemical stability
purity maintained after placement (HPLC) ([2]; all three stability test conditions (25° C./60% RH 1 week, 40° C./75% RH 1 week, 60° C./closed 24 hours)): about 98%
HPLC purity initial ([2]; sample of the 25° C./60% RH and 40° C./75% RH 1 week tests): 98.41 area %
HPLC purity initial ([2]; sample of the 60° C./closed 24 hours test): 98.60 area %
stability (overall conclusion of the stability investigation) ([2]; conclusion from Examples 1.67 and 1.68): excellent stability
crystalline form change during heating ([1]; heated to 30° C., 92° C., 118° C., 132° C. and 175° C. under nitrogen, XRPD after cooling): no crystalline form change
